{
  "source": "patent US5688950A",
  "about": "“Tricyclic aminoalkylcarboxamides; novel dopamine D3 receptor subtype specific ligands” (Neurogen Corporation, priority 1996, dated 1997)",
  "key": {"D2 receptor": {"target": "T1, D2 receptor (Chlorocebus aethiops, UniProt P52702)", "T1 construct": "expressed in transfected cells; host or cells: COS cells", "T1 sequence (P52702 whole entry)": "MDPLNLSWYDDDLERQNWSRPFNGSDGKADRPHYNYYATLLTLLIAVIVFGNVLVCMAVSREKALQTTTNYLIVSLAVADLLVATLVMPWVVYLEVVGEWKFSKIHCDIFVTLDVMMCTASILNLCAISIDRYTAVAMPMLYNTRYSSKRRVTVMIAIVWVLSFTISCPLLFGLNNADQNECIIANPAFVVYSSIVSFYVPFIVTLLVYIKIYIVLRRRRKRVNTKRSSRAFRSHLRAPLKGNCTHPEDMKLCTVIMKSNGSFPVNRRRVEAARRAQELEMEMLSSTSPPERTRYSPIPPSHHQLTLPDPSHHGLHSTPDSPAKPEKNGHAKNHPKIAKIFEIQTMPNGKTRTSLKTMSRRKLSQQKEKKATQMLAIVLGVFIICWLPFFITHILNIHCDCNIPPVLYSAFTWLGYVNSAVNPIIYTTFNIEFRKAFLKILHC", "assay": "D2 receptor binding activity (pellets of COS cells, 3H-YM 09151-2)", "set-up": "species or system African Green monkey", "conditions": "0.5 nM 3H-YM 09151-2, pH 7.4; nonspecific with 1 mM spiperone", "description": "(§1) Pellets of COS cells containing recombinantly produced D2 or D3 receptors from African Green monkey were used for the assays. The sample is homogenized in 100 volumes (w/vol) of 0.05M Tris HCl buffer at 4° C. and pH 7.4. The sample is then centrifuged at 30,000×g and resuspended and rehomogenized. The sample is then centrifuged as described and the final tissue sample is frozen until use. The tissue is resuspended 1:20 (wt/vol) in 0.05M Tris HCl buffer containing 100 mM NaCl.\n(§2) Incubations are carried out at 48° C. and contain 0.4 ml of tissue sample, 0.5 nM ^3 H-YM 09151-2 and the compound of interest in a total incubation of 1.0 ml. Nonspecific binding is defined as that binding found in the presence of 1 mM spiperone; without further additions, nonspecific binding is less than 20% of total binding. The binding characteristics of representative compounds of the invention for D2 and D3 receptor subtypes are shown in Table 1 for rat striatal homogenates."}, "D3 receptor": {"target": "T2, D3 receptor (Chlorocebus aethiops, UniProt P52703)", "T2 construct": "expressed in transfected cells; host or cells: COS cells", "T2 sequence (P52703 whole entry)": "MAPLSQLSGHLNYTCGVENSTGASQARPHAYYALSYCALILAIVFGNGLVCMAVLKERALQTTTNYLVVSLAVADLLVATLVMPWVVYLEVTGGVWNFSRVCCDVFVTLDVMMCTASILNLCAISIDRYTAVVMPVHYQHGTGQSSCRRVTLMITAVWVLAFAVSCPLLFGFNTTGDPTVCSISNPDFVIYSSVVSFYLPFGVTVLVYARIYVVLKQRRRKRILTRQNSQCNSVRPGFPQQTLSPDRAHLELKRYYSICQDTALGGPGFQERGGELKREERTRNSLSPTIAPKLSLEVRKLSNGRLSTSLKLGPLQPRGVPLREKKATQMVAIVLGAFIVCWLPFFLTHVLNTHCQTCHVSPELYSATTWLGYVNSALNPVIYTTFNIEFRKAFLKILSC", "assay": "D3 receptor binding activity (pellets of COS cells, 3H-YM 09151-2)", "set-up": "species or system African Green monkey", "description": "as §1, §2"}, "[1]": {"conditions": "0.5 nM 3H-YM 09151-2, pH 7.4, nonspecific with 1 mM spiperone, read-out: D3 Ki"}},
  "note": "Where a name gives a salt, the structure may show the parent alone. Read-outs that look alike come from different tables or passages of the source.",
  "data": [
    {"compound": "O=C(NCCCCN1CCc2c(ccc3ccccc23)C1)c1cnc2ccccc2n1", "note": "[Compound 8, N-{4-(1,2,3,4-tetrahydrobenz[f]isoquinolin-2-yl)butyl}-quinoxaline-2-carboxamide hydrochloride]", "values": [
      {"measurement": "Ki", "setting": "D2 receptor", "result": 250, "unit": "nM"},
      {"measurement": "Ki", "setting": "D3 receptor; [1]", "result": 12, "unit": "nM"}
    ]},
    {"compound": "O=C(NCCCCN1CCc2c(ccc3ccccc23)C1)c1ccc2sc3ccccc3c2c1", "note": "[Compound 7, N-{4-(1,2,3,4-tetrahydrobenz[f]isoquinolin-2-yl)butyl}-dibenzothiophene-2-carboxamide hydrochloride]", "values": [
      {"measurement": "Ki", "setting": "D2 receptor", "result": 377, "unit": "nM"},
      {"measurement": "Ki", "setting": "D3 receptor; [1]", "result": 5, "unit": "nM"}
    ]},
    {"compound": "O=C(NCCCCN1CCc2c(ccc3ccccc23)C1)c1cnc2ccccc2c1", "note": "[Compound 1, N-{4-(1,2,3,4-tetrahydrobenz[f]isoquinolin-2-yl)butyl}-quinoline-3-carboxamide hydrochloride]", "values": [
      {"measurement": "Ki", "setting": "D2 receptor", "result": 127, "unit": "nM"},
      {"measurement": "Ki", "setting": "D3 receptor; [1]", "result": 8, "unit": "nM"}
    ]},
    {"compound": "O=C(NCCCCN1CCC2=C(CCc3ccccc32)C1)c1ccc(-c2ccccc2)cc1", "note": "[Compound 13, N-{4-(1,2,3,4,5,6-hexahydrobenz[f]isoquinolin-2-yl)butyl}-biphenyl-4-carboxamide hydrochloride]", "values": [
      {"measurement": "Ki", "setting": "D2 receptor", "result": 362, "unit": "nM"},
      {"measurement": "Ki", "setting": "D3 receptor", "result": 10, "unit": "nM"}
    ]},
    {"compound": "O=C(NCCCCN1CCN2c3ccccc3CCC2C1)c1ccc2c(c1)Cc1ccccc1-2", "note": "(stereo not drawn) [Compound 14, N-{4-(2,3,4,4a,5,6-hexahydro-1H-pyrazino[1,2-a]quinolin-2-yl)butyl}-fluorene-2-carboxamide hydrochloride]", "values": [
      {"measurement": "Ki", "setting": "D2 receptor", "result": 198, "unit": "nM"},
      {"measurement": "Ki", "setting": "D3 receptor; [1]", "result": 9, "unit": "nM"}
    ]},
    {"compound": "N-{4-(1,2,3,4-tetrahydrobenz[f]isoquinolin-2-yl)butyl}-fluoren-9-one-3-carboxamide hydrochloride [Compound 6]", "values": [
      {"measurement": "Ki", "setting": "D2 receptor", "result": 165, "unit": "nM"},
      {"measurement": "Ki", "setting": "D3 receptor; [1]", "result": 17, "unit": "nM"}
    ]}
  ]
}
